Experimental findings from patent publication US20250346569A1, “NEW DERIVATIVES FOR TREATING TRPM3 MEDIATED DISORDERS” (Katholieke Universiteit Leuven, priority 2022, published 2025) are described below.

Molecules are shown by their SMILES. pIC50: −log10 of the molar value.

T1 sequence (J9SQF3 1-1709 isoform J9SQF3-12): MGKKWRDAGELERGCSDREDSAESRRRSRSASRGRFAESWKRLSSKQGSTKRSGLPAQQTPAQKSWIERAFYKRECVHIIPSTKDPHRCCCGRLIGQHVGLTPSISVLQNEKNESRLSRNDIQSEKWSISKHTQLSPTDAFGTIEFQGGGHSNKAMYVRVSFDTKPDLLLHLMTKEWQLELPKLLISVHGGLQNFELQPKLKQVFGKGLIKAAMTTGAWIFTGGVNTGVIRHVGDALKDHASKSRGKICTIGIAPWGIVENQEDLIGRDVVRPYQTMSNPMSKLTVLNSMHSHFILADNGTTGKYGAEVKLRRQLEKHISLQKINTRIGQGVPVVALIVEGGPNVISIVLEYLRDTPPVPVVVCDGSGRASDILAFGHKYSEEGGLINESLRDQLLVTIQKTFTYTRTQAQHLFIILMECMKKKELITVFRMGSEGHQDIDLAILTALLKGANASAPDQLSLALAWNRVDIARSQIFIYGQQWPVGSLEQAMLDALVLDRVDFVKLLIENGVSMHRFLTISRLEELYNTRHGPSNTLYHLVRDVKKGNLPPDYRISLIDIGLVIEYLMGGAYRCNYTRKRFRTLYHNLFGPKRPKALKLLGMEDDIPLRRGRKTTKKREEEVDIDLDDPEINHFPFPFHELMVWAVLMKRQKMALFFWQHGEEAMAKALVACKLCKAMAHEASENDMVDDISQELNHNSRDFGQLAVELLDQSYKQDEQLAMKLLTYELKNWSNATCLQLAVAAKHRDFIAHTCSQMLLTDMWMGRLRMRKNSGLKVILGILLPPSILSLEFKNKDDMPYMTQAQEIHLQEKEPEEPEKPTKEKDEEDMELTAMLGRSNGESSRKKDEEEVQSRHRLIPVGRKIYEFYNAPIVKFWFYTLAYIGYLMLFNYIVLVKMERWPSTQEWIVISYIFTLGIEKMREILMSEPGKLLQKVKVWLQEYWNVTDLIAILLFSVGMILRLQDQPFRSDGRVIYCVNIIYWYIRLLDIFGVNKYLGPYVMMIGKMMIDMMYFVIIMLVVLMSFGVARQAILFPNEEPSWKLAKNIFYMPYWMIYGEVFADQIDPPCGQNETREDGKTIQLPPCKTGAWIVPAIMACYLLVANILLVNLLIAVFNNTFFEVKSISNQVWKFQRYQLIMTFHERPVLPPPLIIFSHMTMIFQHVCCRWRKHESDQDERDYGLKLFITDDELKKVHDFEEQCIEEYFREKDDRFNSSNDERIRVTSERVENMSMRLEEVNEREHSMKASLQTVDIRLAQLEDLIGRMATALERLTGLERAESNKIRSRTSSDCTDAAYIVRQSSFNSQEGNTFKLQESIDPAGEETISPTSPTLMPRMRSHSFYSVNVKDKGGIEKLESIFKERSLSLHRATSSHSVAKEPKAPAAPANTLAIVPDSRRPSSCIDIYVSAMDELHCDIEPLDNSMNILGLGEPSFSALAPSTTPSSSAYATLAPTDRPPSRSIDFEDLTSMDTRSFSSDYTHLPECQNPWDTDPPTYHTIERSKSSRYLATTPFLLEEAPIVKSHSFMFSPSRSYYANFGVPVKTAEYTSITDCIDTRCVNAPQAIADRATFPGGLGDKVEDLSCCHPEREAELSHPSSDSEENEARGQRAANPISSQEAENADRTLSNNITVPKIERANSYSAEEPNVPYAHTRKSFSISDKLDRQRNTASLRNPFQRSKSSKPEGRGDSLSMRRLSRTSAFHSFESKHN

This experiment concerns the target T1, mouse TRPM3α2 (mTRPM3) ion channel (Mus musculus, UniProt J9SQF3).
T1 construct: expressed in transfected cells; host or cells: flip-in HEK293
Kind of experiment: Monitoring the TRPM3 ion channel driven Ca2+ uptake (Fluo-4 AM assay). The class given is cell-based. The following applies: TRPM3 overexpressing flip-in HEK293 cells, channel stimulated with Pregnenolone sulfate (PS) 50 μM. The method, then:
Monitoring the TRPM3 ion channel driven Ca^2+ uptake.
In order to monitor the inhibition of the mouse TRPM3α2 (mTRPM3) ion channel by the compounds of the invention, a cellular system making use of an mTRPM3alpha2 or hTRPM3 overexpressing cell line (flip-in HEK293) was used. The TRPM3 channel was stimulated/opened with Pregnenolone sulfate (PS) (50 μM) which results in Ca^2+ influx.
For mTRPM3, the intracellular Ca^2+ was measured with a Calcium responsive dye, Fluor-4 AM ester (Invitrogen). Cells were cultured until a confluence of 80-90%, washed with Versene (Invitrogen) and detached from the surface by a short incubation with 0.05% Trypsin (Invitrogen). The trypsination process was stopped by the addition of complete cell culture medium (DMEM, glutamax,10% FCS,NEAA,Pen-Strep). Cells were collected and resuspended in Krebs buffer without Calcium at RT.
Prior the cell seeding (±2000 cells/well into a black, 384 well plate (Greiner)) the diluted compound was added in the assay plate, together with the PS dissolved in Krebs buffer containing Calcium. […] Directly after cell addition the plates were read on an Envision fluorescence reader (Perkin Elmer) by an Excitation of 485 nm and emission at 535 nm.
Channel inhibition was calculated compared to a non-PS stimulated control versus a condition stimulated with PS (50 μM) with vehicle. The ability of the compounds of the invention to inhibit this activity was determined as: Percentage inhibition=[1−((RFU determined for sample with test compound present−RFU determined for sample with positive control inhibitor) divided by (RFU determined in the presence of vehicle−RFU determined for sample with positive control inhibitor))]*100.
The activities of the Example compounds tested are depicted in the table below. The activity ranges A, B and C refer to IC50 values in the Fluo-4 AM assay as follows: “A”: IC50<1 μM; “B”: 1 μM≤IC50≤20 μM and “C”: IC50>20 μM
As a reminder, the pIC50 is the negative decadic logarithm of the IC50, by convention in mol/L. Read a high pIC50 as a small IC50. `Cc1ncsc1COc1ccc2sc(C)c(C(=O)O)c2c1` [Cpd 049, 2-methyl-5-[(4-methyl-1,3-thiazol-5-yl)methoxy]-1-benzothiophene-3-carboxylic acid]: the pIC50 was 4.70 to 6.00.
In turn, `Cc1ncsc1COc1ccc2sc(C)c(C(=O)N[C@H](C)C(N)=O)c2c1` [Cpd 006, (2R)-2-({2-methyl-5-[(4-methyl-1,3-thiazol-5-yl)methoxy]-1-benzothiophen-3-yl}formamido)propanamide] showed a pIC50 greater than 6.00.
In turn, `Cc1ncc(COc2ccc3sc(C)c(C(=O)N[C@@H](C)C(N)=O)c3c2)s1` [Cpd 011, (2S)-2-({2-methyl-5-[(2-methyl-1,3-thiazol-5-yl)methoxy]-1-benzothiophen-3-yl}formamido)propanamide] gave a negative-log IC50 (pIC50) greater than 6.00.
`Cc1sc2ccc(OCc3ccccc3)cc2c1C(=O)NC1(CO)CC1` [Cpd 073, 5-(benzyloxy)-N-[1-(hydroxymethyl)cyclopropyl]-2-methyl-1-benzothiophene-3-carboxamide] had a pIC50 of 4.70 to 6.00.
In turn, `CNC(=O)c1c(C)sc2ccc(OCc3cccnc3C(F)(F)F)cc12` [Cpd 136, N,2-dimethyl-5-{[2-(trifluoromethyl)pyridin-3-yl]methoxy}-1-benzothiophene-3-carboxamide] gave a pIC50 greater than 6.00.
`Cc1sc2ccc(OCc3cccnc3C(F)(F)F)cc2c1C(=O)NCC(C)(C)O` [Cpd 101, N-(2-hydroxy-2-methylpropyl)-2-methyl-5-{[2-(trifluoromethyl)pyridin-3-yl]methoxy}-1-benzothiophene-3-carboxamide] showed a pIC50 greater than 6.00.
For the molecule `Cc1sc2ccc(OCc3cccnc3C(F)(F)F)cc2c1C(=O)NC1CC(F)(F)C1` [Cpd 090, N-(3,3-difluorocyclobutyl)-2-methyl-5-{[2-(trifluoromethyl)pyridin-3-yl]methoxy}-1-benzothiophene-3-carboxamide], the pIC50 is less than 4.70.
Molecule `Cc1ncc(COc2ccc3sc(C)c(C(=O)NC4(CO)CC4)c3c2)s1` [Cpd 022, N-[1-(hydroxymethyl)cyclopropyl]-2-methyl-5-[(2-methyl-1,3-thiazol-5-yl)methoxy]-1-benzothiophene-3-carboxamide] had a pIC50 of 4.70 to 6.00.
For the molecule `Cc1sc2ccc(OCc3ccccc3F)cc2c1C(=O)NC(C)(C)C(N)=O` [Cpd 063, 2-({5-[(2-fluorophenyl)methoxy]-2-methyl-1-benzothiophen-3-yl}formamido)-2-methylpropanamide], the pIC50 is greater than 6.00.
`COc1ncccc1COc1ccc2sc(C)c(C(=O)NC(C)(C)C(N)=O)c2c1` [Cpd 141, 2-({5-[(2-methoxypyridin-3-yl)methoxy]-2-methyl-1-benzothiophen-3-yl}formamido)-2-methylpropanamide] had a pIC50 greater than 6.00.
The figure for `Cc1sc2ccc(OCc3cccnc3C(F)(F)F)cc2c1C(=O)N[C@H](CO)C(N)=O` [Cpd 058, (2R)-3-hydroxy-2-[(2-methyl-5-{[2-(trifluoromethyl)pyridin-3-yl]methoxy}-1-benzothiophen-3-yl)formamido]propanamide] is greater than 6.00.
For `CN(C)C1(CNC(=O)c2c(C(F)F)sc3ccc(OCc4ccccc4)cc23)CCCC1` [Cpd 112, 5-(benzyloxy)-2-(difluoromethyl)-N-{[1-(dimethylamino)cyclopentyl]methyl}-1-benzothiophene-3-carboxamide] the value was 4.70 to 6.00; for `CNC(=O)c1c(C(F)F)sc2ccc(OCc3ccccc3)cc12` [Cpd 135, 5-(benzyloxy)-2-(difluoromethyl)-N-methyl-1-benzothiophene-3-carboxamide], less than 4.70.
With `O=C(NC1CCOC1)c1c(C(F)F)sc2ccc(OCc3ccccc3)cc12` (stereo not shown) [Cpd 147, 5-(benzyloxy)-2-(difluoromethyl)-N-(oxolan-3-yl)-1-benzothiophene-3-carboxamide], the pIC50 is 4.70 to 6.00.
In turn, `Cc1sc2ccc(OCc3ccccn3)cc2c1C(=O)NC1(CO)CCOCC1` [Cpd 082, N-[4-(hydroxymethyl)oxan-4-yl]-2-methyl-5-[(pyridin-2-yl)methoxy]-1-benzothiophene-3-carboxamide] gave a pIC50 of 4.70 to 6.00.
The molecule `O=C(NC1CCNC1=O)c1c(C(F)F)sc2ccc(OCc3ccccc3)cc12` (stereo not shown) [Cpd 146, 5-(benzyloxy)-2-(difluoromethyl)-N-(2-oxopyrrolidin-3-yl)-1-benzothiophene-3-carboxamide] gave a pIC50 greater than 6.00.
For `Cc1ncsc1COc1ccc2sc(C)c(C(=O)N[C@H]3CCN(CCO)C3=O)c2c1` [Cpd 030, N-[(3S)-1-(2-hydroxyethyl)-2-oxopyrrolidin-3-yl]-2-methyl-5-[(4-methyl-1,3-thiazol-5-yl)methoxy]-1-benzothiophene-3-carboxamide] the value was greater than 6.00.
`Cc1sc2ccc(OCc3ccccn3)cc2c1C(=O)N[C@H](C)C(N)=O` [Cpd 003, (2R)-2-({2-methyl-5-[(pyridin-2-yl)methoxy]-1-benzothiophen-3-yl}formamido)propanamide] showed a pIC50 greater than 6.00.
In the case of `Cc1sc2ccc(OCc3ccccc3)cc2c1C(=O)NCC(C)(C)N1CCOCC1` [Cpd 098, 5-(benzyloxy)-2-methyl-N-[2-methyl-2-(morpholin-4-yl)propyl]-1-benzothiophene-3-carboxamide], the pIC50 is 4.70 to 6.00.
For `CN1CC(NC(=O)c2c(C(F)F)sc3ccc(OCc4ccccc4)cc23)C(F)(F)C1` (stereo not shown) [Cpd 119, 5-(benzyloxy)-N-(4,4-difluoro-1-methylpyrrolidin-3-yl)-2-(difluoromethyl)-1-benzothiophene-3-carboxamide], the pIC50 is 4.70 to 6.00.
Turning to `Cc1ncc(COc2ccc3sc(C)c(C(=O)NC4(CO)CCC4)c3c2)s1` [Cpd 023, N-[1-(hydroxymethyl)cyclobutyl]-2-methyl-5-[(2-methyl-1,3-thiazol-5-yl)methoxy]-1-benzothiophene-3-carboxamide], the pIC50 was greater than 6.00.
Regarding `Cc1ncsc1COc1ccc2sc(C)c(C(=O)NC3CCN(C)C3)c2c1` (stereo not shown) [Cpd 126, 2-methyl-5-[(4-methyl-1,3-thiazol-5-yl)methoxy]-N-(1-methylpyrrolidin-3-yl)-1-benzothiophene-3-carboxamide], the negative logarithm of the IC50 (pIC50) was greater than 6.00.
In turn, `Cc1sc2ccc(OCc3cccnc3O)cc2c1C(=O)N[C@@H](CO)C(N)=O` [Cpd 054, (2S)-3-hydroxy-2-({5-[(2-hydroxypyridin-3-yl)methoxy]-2-methyl-1-benzothiophen-3-yl}formamido)propanamide] gave a pIC50 of 4.70 to 6.00.
On to `Cc1ncsc1COc1ccc2sc(C)c(C(=O)NCC(C)(C)O)c2c1` [Cpd 045, N-(2-hydroxy-2-methylpropyl)-2-methyl-5-[(4-methyl-1,3-thiazol-5-yl)methoxy]-1-benzothiophene-3-carboxamide], for which the pIC50 was greater than 6.00.
Consider `Cc1nc(COc2ccc3sc(C)c(C(=O)NC(C)(CO)C(N)=O)c3c2)cs1` (single isomer, unassigned) [Cpd 015 - En1, 3-hydroxy-2-methyl-2-({2-methyl-5-[(2-methyl-1,3-thiazol-4-yl)methoxy]-1-benzothiophen-3-yl}formamido)propanamide], for which the pIC50 was greater than 6.00.
The molecule `Cc1ncc(COc2ccc3sc(C)c(C(=O)NC(C)(C)C(N)=O)c3c2)s1` [Cpd 018, 2-methyl-2-({2-methyl-5-[(2-methyl-1,3-thiazol-5-yl)methoxy]-1-benzothiophen-3-yl}formamido)propanamide] showed a pIC50 greater than 6.00.
As for `Cc1sc2ccc(OCc3ccccc3F)cc2c1C(=O)NC1(CO)COC1` [Cpd 085, 5-[(2-fluorophenyl)methoxy]-N-[3-(hydroxymethyl)oxetan-3-yl]-2-methyl-1-benzothiophene-3-carboxamide], the pIC50 is greater than 6.00.
`Cc1sc2ccc(OCc3cccnc3O)cc2c1C(=O)NC1(C(=O)O)CCOCC1` [Cpd 072, 4-{5-[(2-hydroxypyridin-3-yl)methoxy]-2-methyl-1-benzothiophene-3-amido}oxane-4-carboxylic acid] showed a pIC50 of less than 4.70.
Molecule `Cc1ncsc1COc1ccc2sc(C)c(C(=O)NCC3CCC(=O)N3)c2c1` (stereo not shown) [Cpd 046, 2-methyl-5-[(4-methyl-1,3-thiazol-5-yl)methoxy]-N-[(5-oxopyrrolidin-2-yl)methyl]-1-benzothiophene-3-carboxamide] had a pIC50 greater than 6.00.
As to `Cc1ncc(COc2ccc3sc(C)c(C(=O)N[C@H](CO)C(N)=O)c3c2)s1` [Cpd 017, (2R)-3-hydroxy-2-({2-methyl-5-[(2-methyl-1,3-thiazol-5-yl)methoxy]-1-benzothiophen-3-yl}formamido)propanamide], the pIC50 is greater than 6.00.
The figure for `O=C(NC1CC(F)(F)C1)c1c(C(F)F)sc2ccc(OCc3ccccc3)cc12` [Cpd 145, 5-(benzyloxy)-N-(3,3-difluorocyclobutyl)-2-(difluoromethyl)-1-benzothiophene-3-carboxamide] is less than 4.70.
